Results from PMC12582985, “Preparation and characterization of renal cell peptides from fetal rats for their antitumor activity” (FEBS Open Bio, 2025).

How the values were obtained:
[1] = Solubility of the synthesized peptides; type: physicochemical; conditions: for Solubility: solvent given for the synthesized peptide (GenScript)
HepG2 cells = test: CCK‐8 cell viability assay, HepG2; type: cell-based, human; conditions: CCK‐8, 48 h, triplicate; peptides 5–45 μg·mL^−1; 5‐FU positive control 0.1–5 mM; vs negative control
Source text: (§1) Human breast cancer MCF‐7 (RRID:CVCL_0031), human lung cancer A549 (RRID:CVCL_0023), human colon cancer HCT‐116 (RRID:CVCL_0291), human cervical cancer Hela (RRID:CVCL_0030), human hepatoma HepG2 (RRID:CVCL_0027), human gastric cancer SGC‐7901 (RRID:CVCL_0520) and human non‐tumor mamma gland epithelial MCF‐10A (RRID:CVCL_0598) and transformed human liver epithelial‐2 (THLE‐2) (RRID:CVCL_3803) cells were obtained from Shanghai Donghuan Biotechnology (Shanghai, China). All cell lines had been authenticated in the past 3 years and again within 4 months after completion of the experiments. All cell lines had been tested for mycoplasma contamination frequently. Their identities were characterized by short tandem repeat analysis. All of these cell lines were cultured in high glucose Dulbecco's modified Eagle's medium supplemented by 10% fetal bovine serum, 100 units·mL^−1 penicillin and 100 μg·mL^−1 streptomycin (complete culture medium).
(§2) MCF‐7 cells (1 × 10^4 cells per well) were treated in triplicate with different doses of each type of RC extract in 96‐well plates for varying time periods. The negative control cells were treated with the diluent of physiological saline, whereas positive control cells were treated with different concentrations (0.1–5 mM) of 5‐fluorouracil (5‐FU) (Leica, Wetzlar, Germany). During the last hour of culture, each well of cells was treated with 10 μL of CCK‐8 solution. The absorbance of the supernatants of individual wells was measured at 450 nm using a microplate reader. Similarly, the effect of different synthesized RCPs (5–45 μg·mL^−1) on the viability of different types of human cancer cells was tested with CCK‐8 assays using the diluent of physiological saline containing the same concentration of dimethylsulfoxide as a negative control and the same concentrations of 5‐FU as the positive controls. Ten RCPs with a predicted strong bioactivity were synthesized by GenScript ([…]) and their purity, sequences and solubility are shown in Table 1. […] The formula used to calculate the cytotoxicity rate of each concentration of RCP was: Cytotoxicity rate (%) = (absorbance value of the control group − absorbance value of the experimental group)/absorbance value of the control group × 100%. In addition, MCF‐7 cells were treated with each type of RCP at 45 μg·mL^−1 for 12–72 h and the dynamic impact of RCP treatment on the viability of MCF‐7 cells was determined every 12 h using CCK‐8 assays.
(§3) Data are expressed as the mean ± SEM. The data distribution was analyzed by Shapiro–Wilk test. The IC50 values of each peptide for individual cell lines were determined using the PRISM, version 8 (GraphPad Software Inc.). Briefly, all dose–response data were converted into […], which were automatically analyzed by PRISM for non‐linear regression to determine and report the IC50 and its SD for each peptide in a specific cell line. The difference among groups was analyzed by analysis of variance and post‐hoc Tukey's tests and the comparison between groups was performed using Student's t‐test and PRISM, version 8 (GraphPad Software Inc.). P < 0.05 was considered statistically significant.

Hela cells = test: CCK‐8 cell viability assay, Hela; type: cell-based, human; conditions: CCK‐8, 48 h, triplicate; peptides 5–45 μg·mL^−1; 5‐FU positive control 0.1–5 mM; vs negative control
Source text: as §1, §2, §3

SGC‐7901 cells = test: CCK‐8 cell viability assay, SGC‐7901; type: cell-based, human; conditions: CCK‐8, 48 h, triplicate; peptides 5–45 μg·mL^−1; 5‐FU positive control 0.1–5 mM; vs negative control
Source text: as §1, §2, §3

HCT‐116 cells = test: CCK‐8 cell viability assay, HCT‐116; type: cell-based, human; conditions: CCK‐8, 48 h, triplicate; peptides 5–45 μg·mL^−1; 5‐FU positive control 0.1–5 mM; vs negative control
Source text: as §1, §2, §3

MCF‐7 cells = test: CCK‐8 cell viability assay, MCF‐7; type: cell-based, human; conditions: for viability of MCF‐7 cells: CCK‐8, 48 h, triplicate, peptides 5–45 μg·mL^−1, 5‐FU positive control 0.1–5 mM, vs negative control
Source text: as §1, §2, §3

MCF‐10A cells = test: CCK‐8 cell viability assay, non‐tumor MCF‐10A; type: cell-based, human; conditions: CCK‐8, 48 h, triplicate; peptides 5–45 μg·mL^−1; 5‐FU positive control 0.1–5 mM; vs negative control
Source text: as §1, §2, §3

THLE‐2 cells = test: CCK‐8 cell viability assay, non‐tumor THLE‐2; type: cell-based, human; conditions: CCK‐8, 48 h, triplicate; peptides 5–45 μg·mL^−1; 5‐FU positive control 0.1–5 mM; vs negative control
Source text: as §1, §2, §3

[2] = tested on: cancer cells (MCF‐7, A549, HCT‐116, Hela, HepG2, SGC‐7901) vs non‐tumor MCF‐10A and THLE‐2 cells; test: CCK‐8 cytotoxicity, preference for cancer cells over non‐tumor cells; type: cell-based, human; parameters: cytotoxicity against non‐tumor MCF‐10A and THLE‐2 cells compared with tumor cell lines: dose or concentration left out as unconfirmed; conditions: for preference of cytotoxicity for cancer cells over non‐tumor cells: 5–45 μg·mL^−1, 48 h, CCK‐8
Source text: as §1, §2, §3

A549 cells = test: CCK‐8 cell viability assay, A549; type: cell-based, human; conditions: CCK‐8, 48 h, triplicate; peptides 5–45 μg·mL^−1; 5‐FU positive control 0.1–5 mM; vs negative control
Source text: as §1, §2, §3

Sequence | Solubility [1] | viability of HepG2 cells (HepG2 cells) | viability of Hela cells (Hela cells) | viability of SGC‐7901 cells (SGC‐7901 cells) | viability of HCT‐116 cells (HCT‐116 cells) | viability of MCF‐7 cells (MCF‐7 cells) | viability of non‐tumor MCF‐10A cells (MCF‐10A cells) | viability of non‐tumor THLE‐2 cells (THLE‐2 cells) | preference of cytotoxicity for cancer cells over non‐tumor cells [2] | viability of A549 cells (A549 cells) | aqueous solubility ([1]; in words) | dynamic cytotoxicity against MCF‐7 cells (MCF‐7 cells; 45 μg·mL^−1, 12–72 h, CCK‐8 every 12 h, maintained at highest levels to 72 h) | cytotoxicity against non‐tumor MCF‐10A and THLE‐2 cells compared with tumor cell lines ([2]; 48 h, P < 0.05 or P < 0.01)
RFFESFGDL [RCP‐7, synthesized 9‐mer renal cell peptide from GLOBIN domain‐containing protein, protamex‐digested] | 0.1% Dimethylsulfoxide | decreased the viability | decreased the viability | decreased the viability | decreased the viability | decreased the viability | decreased the viability | decreased the viability | did not preferably decrease the viability of tumor cells | decreased the viability | – | – | –
SSGCPPLPPRRGAPAGWLSH [RCP‐2, synthesized 20‐mer renal cell peptide from Brain‐derived neurotrophic factor, trypsin digested] | Water, pH 7.0 | decreased the viability | decreased the viability | decreased the viability | decreased the viability | decreased the viability | decreased the viability | decreased the viability | did not preferably decrease the viability of tumor cells | decreased the viability | – | – | –
VCMRVCRTWSRWCYDKRLWP [RCP‐5, synthesized 20‐mer renal cell peptide from F‐box and leucine‐rich repeat protein 19, trypsin digested] | 0.1% Dimethylsulfoxide | significantly decreased the viability | significantly decreased the viability | significantly decreased the viability | significantly decreased the viability | significantly decreased the viability | only treatment with the highest doses of them slightly reduced the viability | only treatment with the highest doses of them slightly reduced the viability | potent cytotoxicity preferably against cancer cells | significantly decreased the viability | low aqueous solubility | increased with time from 12 h post treatment to 48 h | statistically lower than tumor cell lines
